In brackets after ≈: the same amount, converted by molar mass.
Tested on: KB
Test: Cytotoxicity against human KB cells
Type: functional
Details: read-out: ED50 (the source's name)

Structure (SMILES)	EC50
C=C(C)C(=O)O[C@H]1C/C(CO)=C/CC[C@@]2(C)O[C@H]2[C@H]2OC(=O)C(=C)[C@@H]21 [TOMENPHANTIN A]	3 µg/mL (≈ 8.61 µM)
C=C(C)C(=O)O[C@H]1C/C(C=O)=C/CC[C@@]2(C)O[C@H]2[C@H]2OC(=O)C(=C)[C@@H]21 [TOMENPHANTIN B]	2.7 µg/mL (≈ 7.79 µM)

From ChEMBL document CHEMBL1158020, “Antitumor agents. 190. Absolute stereochemistry of the cytotoxic germacranolides, tomenphantins A and B, from Elephantopus tomentosus” (1999)
